Test results published in PubChem BioAssay AID2060895 (Molecular Pharmacology Branch, DTP, NCI, 2025).

System: PDC 899932-113-R3-J6 complex spheroid viability
Assay: Anticancer human tumor 899932-113-R3-J6-PDC patient-derived melanoma cell line growth inhibition [RAS]
Details: for IC50: curve of first compound; for viability, T/C: stronger effect = lower value
Procedure, shortened: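 Tumour cells grown as complex spheroids with HUVEC endothelial cells and mesenchymal stem cells, treated with RAS pathway inhibitor combinations. Each agent spans half-log steps from near clinical Cmax, or 10 microM where Cmax is unknown.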

[1] = second compound 0.00316 µM, first compound 0.0316 µM
[2] = second compound 0.00316 µM, first compound 0.1 µM
[3] = second compound 0.00316 µM, first compound 0.316 µM
[4] = second compound 0.00316 µM, first compound 1 µM
[5] = second compound 0.00316 µM, first compound 3.16 µM
[6] = second compound 0.00316 µM, first compound 10 µM
[7] = second compound 0.01 µM, first compound 0.0316 µM
[8] = second compound 0.01 µM, first compound 0.1 µM
[9] = second compound 0.01 µM, first compound 0.316 µM
[10] = second compound 0.01 µM, first compound 1 µM
[11] = second compound 0.01 µM, first compound 3.16 µM
[12] = second compound 0.01 µM, first compound 10 µM
[13] = second compound 0.0316 µM, first compound 0.0316 µM
[14] = second compound 0.0316 µM, first compound 0.1 µM
[15] = second compound 0.0316 µM, first compound 0.316 µM
[16] = second compound 0.0316 µM, first compound 1 µM
[17] = second compound 0.0316 µM, first compound 3.16 µM
[18] = second compound 0.0316 µM, first compound 10 µM
[19] = second compound 0.1 µM, first compound 0.0316 µM
[20] = second compound 0.1 µM, first compound 0.1 µM
[21] = second compound 0.1 µM, first compound 0.316 µM
[22] = second compound 0.1 µM, first compound 1 µM
[23] = second compound 0.1 µM, first compound 3.16 µM
[24] = second compound 0.1 µM, first compound 10 µM
[25] = second compound 0.316 µM, first compound 0.0316 µM
[26] = second compound 0.316 µM, first compound 0.1 µM
[27] = second compound 0.316 µM, first compound 0.316 µM
[28] = second compound 0.316 µM, first compound 1 µM
[29] = second compound 0.316 µM, first compound 3.16 µM
[30] = second compound 0.316 µM, first compound 10 µM
[31] = second compound 1 µM, first compound 0.0316 µM
[32] = second compound 1 µM, first compound 0.1 µM
[33] = second compound 1 µM, first compound 0.316 µM
[34] = second compound 1 µM, first compound 1 µM
[35] = second compound 1 µM, first compound 3.16 µM
[36] = second compound 1 µM, first compound 10 µM
[37] = second compound 0.00316 µM, first compound 0.00316 µM
[38] = second compound 0.00316 µM, first compound 0.01 µM
[39] = second compound 0.01 µM, first compound 0.00316 µM
[40] = second compound 0.01 µM, first compound 0.01 µM
[41] = second compound 0.0316 µM, first compound 0.00316 µM
[42] = second compound 0.0316 µM, first compound 0.01 µM
[43] = second compound 0.1 µM, first compound 0.00316 µM
[44] = second compound 0.1 µM, first compound 0.01 µM
[45] = second compound 0.316 µM, first compound 0.00316 µM
[46] = second compound 0.316 µM, first compound 0.01 µM
[47] = second compound 1 µM, first compound 0.00316 µM
[48] = second compound 1 µM, first compound 0.01 µM
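Wherever viability, T/C is given: spheroids exposed to agents for seven days before readout; 100% = DMSO vehicle control wells.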

CC(C)NCC(C(=O)N1CCN(c2ncnc3c2C(C)CC3O)CC1)c1ccc(Cl)cc1 (stereo not given) + C=CC(=O)N1CCN(c2nc(OCC3CCCN3C)nc3c(F)c(-c4nc(N)cc(C)c4C(F)(F)F)c(Cl)cc23)C(C)C1
IC50 (second compound 0.00316 µM): 4890 nM
IC50 (second compound 0.01 µM): 5200 nM
IC50 (second compound 0.0316 µM): 5300 nM
IC50 (second compound 0.1 µM): 5830 nM
IC50 (second compound 0.316 µM): 5980 nM
IC50 (second compound 1 µM): 6010 nM
viability, T/C [1]: 106%
viability, T/C [2]: 97.3%
viability, T/C [3]: 99.6%
viability, T/C [4]: 84.4%
viability, T/C [5]: 60.3%
viability, T/C [6]: 33%
viability, T/C [7]: 110%
viability, T/C [8]: 105%
viability, T/C [9]: 102%
viability, T/C [10]: 81.3%
viability, T/C [11]: 60.9%
viability, T/C [12]: 36.8%
viability, T/C [13]: 110%
viability, T/C [14]: 101%
viability, T/C [15]: 104%
viability, T/C [16]: 82.7%
viability, T/C [17]: 65.1%
viability, T/C [18]: 32.6%
viability, T/C [19]: 103%
viability, T/C [20]: 110%
viability, T/C [21]: 99%
viability, T/C [22]: 89%
viability, T/C [23]: 58.9%
viability, T/C [24]: 41.9%
viability, T/C [25]: 106%
viability, T/C [26]: 105%
viability, T/C [27]: 96.3%
viability, T/C [28]: 83.7%
viability, T/C [29]: 72.8%
viability, T/C [30]: 33.6%
viability, T/C [31]: 88.7%
viability, T/C [32]: 104%
viability, T/C [33]: 105%
viability, T/C [34]: 89.5%
viability, T/C [35]: 73.7%
viability, T/C [36]: 31.7%

CC(C)n1nc(-c2ccc3oc(N)nc3c2)c2c(N)ncnc21 + C=CC(=O)N1CCN(c2nc(OCC3CCCN3C)nc3c(F)c(-c4nc(N)cc(C)c4C(F)(F)F)c(Cl)cc23)C(C)C1
IC50 (second compound 0.00316 µM): 90.7 nM
IC50 (second compound 0.01 µM): > 100 nM
IC50 (second compound 0.0316 µM): > 100 nM
IC50 (second compound 0.1 µM): > 100 nM
IC50 (second compound 0.316 µM): > 100 nM
IC50 (second compound 1 µM): > 100 nM
viability, T/C (second compound 0.00316 µM, first compound 0.000316 µM): 109%
viability, T/C (second compound 0.00316 µM, first compound 0.001 µM): 105%
viability, T/C [37]: 114%
viability, T/C [38]: 105%
viability, T/C [1]: 79.6%
viability, T/C [2]: 47.3%
viability, T/C (second compound 0.01 µM, first compound 0.000316 µM): 113%
viability, T/C (second compound 0.01 µM, first compound 0.001 µM): 116%
viability, T/C [39]: 112%
viability, T/C [40]: 115%
viability, T/C [7]: 74.5%
viability, T/C [8]: 52.6%
viability, T/C (second compound 0.0316 µM, first compound 0.000316 µM): 113%
viability, T/C (second compound 0.0316 µM, first compound 0.001 µM): 111%
viability, T/C [41]: 102%
viability, T/C [42]: 97.7%
viability, T/C [13]: 75.7%
viability, T/C [14]: 54.1%
viability, T/C (second compound 0.1 µM, first compound 0.000316 µM): 110%
viability, T/C (second compound 0.1 µM, first compound 0.001 µM): 121%
viability, T/C [43]: 106%
viability, T/C [44]: 92.2%
viability, T/C [19]: 83.5%
viability, T/C [20]: 52.3%
viability, T/C (second compound 0.316 µM, first compound 0.000316 µM): 98.9%
viability, T/C (second compound 0.316 µM, first compound 0.001 µM): 104%
viability, T/C [45]: 111%
viability, T/C [46]: 104%
viability, T/C [25]: 85.5%
viability, T/C [26]: 50%
viability, T/C (second compound 1 µM, first compound 0.000316 µM): 108%
viability, T/C (second compound 1 µM, first compound 0.001 µM): 108%
viability, T/C [47]: 109%
viability, T/C [48]: 100%
viability, T/C [31]: 78.9%
viability, T/C [32]: 54.8%

CC(Nc1ccc2c(c1)OCCn1cc(N3C(=O)OCC3C(F)F)nc1-2)C(N)=O (stereo not given) + C=CC(=O)N1CCN(c2nc(OCC3CCCN3C)nc3c(F)c(-c4nc(N)cc(C)c4C(F)(F)F)c(Cl)cc23)C(C)C1
IC50 (second compound 0.00316 µM): 1670 nM
IC50 (second compound 0.01 µM): 2010 nM
IC50 (second compound 0.0316 µM): 2910 nM
IC50 (second compound 0.1 µM): 2330 nM
IC50 (second compound 0.316 µM): 1640 nM
IC50 (second compound 1 µM): 1510 nM
viability, T/C [1]: 97%
viability, T/C [2]: 72.4%
viability, T/C [3]: 69.6%
viability, T/C [4]: 55.6%
viability, T/C [5]: 43%
viability, T/C [6]: 36.7%
viability, T/C [7]: 81.4%
viability, T/C [8]: 75.8%
viability, T/C [9]: 65.6%
viability, T/C [10]: 55.8%
viability, T/C [11]: 47.5%
viability, T/C [12]: 32.8%
viability, T/C [13]: 90.3%
viability, T/C [14]: 75.8%
viability, T/C [15]: 70.1%
viability, T/C [16]: 59.9%
viability, T/C [17]: 49.7%
viability, T/C [18]: 38.9%
viability, T/C [19]: 88.2%
viability, T/C [20]: 77.2%
viability, T/C [21]: 69.1%
viability, T/C [22]: 55.6%
viability, T/C [23]: 48.3%
viability, T/C [24]: 38.6%
viability, T/C [25]: 82.3%
viability, T/C [26]: 75.9%
viability, T/C [27]: 68.5%
viability, T/C [28]: 51.9%
viability, T/C [29]: 46.5%
viability, T/C [30]: 38.6%
viability, T/C [31]: 95.5%
viability, T/C [32]: 81.2%
viability, T/C [33]: 61.4%
viability, T/C [34]: 53.2%
viability, T/C [35]: 48.7%
viability, T/C [36]: 32%

CCN1CCN(Cc2ccc(Nc3ncc(F)c(-c4cc(F)c5nc(C)n(C(C)C)c5c4)n3)nc2)CC1 + C=CC(=O)N1CCN(c2nc(OCC3CCCN3C)nc3c(F)c(-c4nc(N)cc(C)c4C(F)(F)F)c(Cl)cc23)C(C)C1
IC50 (second compound 0.00316 µM): 414 nM
IC50 (second compound 0.01 µM): 457 nM
IC50 (second compound 0.0316 µM): 447 nM
IC50 (second compound 0.1 µM): 429 nM
IC50 (second compound 0.316 µM): 467 nM
IC50 (second compound 1 µM): 393 nM
viability, T/C [37]: 102%
viability, T/C [38]: 92.3%
viability, T/C [1]: 88.7%
viability, T/C [2]: 78%
viability, T/C [3]: 62.2%
viability, T/C [4]: 18.8%
viability, T/C [39]: 99.9%
viability, T/C [40]: 98.5%
viability, T/C [7]: 95.6%
viability, T/C [8]: 85.5%
viability, T/C [9]: 63%
viability, T/C [10]: 22.6%
viability, T/C [41]: 98.4%
viability, T/C [42]: 101%
viability, T/C [13]: 103%
viability, T/C [14]: 89.5%
viability, T/C [15]: 63%
viability, T/C [16]: 20.6%
viability, T/C [43]: 109%
viability, T/C [44]: 94%
viability, T/C [19]: 85.7%
viability, T/C [20]: 83%
viability, T/C [21]: 61.2%
viability, T/C [22]: 24%
viability, T/C [45]: 101%
viability, T/C [46]: 106%
viability, T/C [25]: 90.5%
viability, T/C [26]: 81%
viability, T/C [27]: 65.9%
viability, T/C [28]: 23.9%
viability, T/C [47]: 107%
viability, T/C [48]: 104%
viability, T/C [31]: 93%
viability, T/C [32]: 72.8%
viability, T/C [33]: 64.3%
viability, T/C [34]: 18%

C[C@@H](NC(=O)c1ncnc(N)c1Cl)c1ncc(C(=O)Nc2cc(C(F)(F)F)c(Cl)cn2)s1 + C=CC(=O)N1CCN(c2nc(OCC3CCCN3C)nc3c(F)c(-c4nc(N)cc(C)c4C(F)(F)F)c(Cl)cc23)C(C)C1
IC50 (second compound 0.00316 µM): 6950 nM
IC50 (second compound 0.01 µM): 7010 nM
IC50 (second compound 0.0316 µM): 7260 nM
IC50 (second compound 0.1 µM): 7390 nM
IC50 (second compound 0.316 µM): 7410 nM
IC50 (second compound 1 µM): 7600 nM
viability, T/C [1]: 131%
viability, T/C [2]: 152%
viability, T/C [3]: 169%
viability, T/C [4]: 164%
viability, T/C [5]: 103%
viability, T/C [6]: 25.8%
viability, T/C [7]: 140%
viability, T/C [8]: 153%
viability, T/C [9]: 153%
viability, T/C [10]: 154%
viability, T/C [11]: 106%
viability, T/C [12]: 25%
viability, T/C [13]: 121%
viability, T/C [14]: 143%
viability, T/C [15]: 157%
viability, T/C [16]: 154%
viability, T/C [17]: 104%
viability, T/C [18]: 29.1%
viability, T/C [19]: 142%
viability, T/C [20]: 152%
viability, T/C [21]: 153%
viability, T/C [22]: 160%
viability, T/C [23]: 115%
viability, T/C [24]: 26.9%
viability, T/C [25]: 136%
viability, T/C [26]: 136%
viability, T/C [27]: 168%
viability, T/C [28]: 161%
viability, T/C [29]: 108%
viability, T/C [30]: 29.3%
viability, T/C [31]: 124%
viability, T/C [32]: 144%
viability, T/C [33]: 149%
viability, T/C [34]: 151%
viability, T/C [35]: 114%
viability, T/C [36]: 29.9%
